Laboratory results from US11376229B2, “Method of treating or preventing neurodegeneration” (Reprise Pharmaceuticals, Inc., priority 2011, dated 2022).

Assays:
WT EAE mice [1] = test: EAE clinical disability scores, MOG35-55-immunized mice treated with glibenclamide; type: in vivo; details: 10 μg daily i.p. from first clinical symptoms (day 8), vs vehicle (DMSO) control, P<0.05
Trpm4−/− EAE mice = test: EAE clinical disability scores in Trpm4-/- mice treated with glibenclamide; type: in vivo; details: 10 μg daily i.p. from day 8, vs DMSO control
WT EAE mice [2] = test: Immunohistochemical count of axons (SMI 31/SMI 32) and neuronal somata (NeuN) in cervical spinal cord of EAE mice; type: in vivo; details: 30 days post immunization, vs vehicle control
TRPM4 = TRPM4 (Homo sapiens, UniProt Q8TD43); details: reported by Damien et al. 2007; Becerra et al. 2011; cited from earlier work
TRPM4, sequence (Q8TD43 whole entry, species assumed): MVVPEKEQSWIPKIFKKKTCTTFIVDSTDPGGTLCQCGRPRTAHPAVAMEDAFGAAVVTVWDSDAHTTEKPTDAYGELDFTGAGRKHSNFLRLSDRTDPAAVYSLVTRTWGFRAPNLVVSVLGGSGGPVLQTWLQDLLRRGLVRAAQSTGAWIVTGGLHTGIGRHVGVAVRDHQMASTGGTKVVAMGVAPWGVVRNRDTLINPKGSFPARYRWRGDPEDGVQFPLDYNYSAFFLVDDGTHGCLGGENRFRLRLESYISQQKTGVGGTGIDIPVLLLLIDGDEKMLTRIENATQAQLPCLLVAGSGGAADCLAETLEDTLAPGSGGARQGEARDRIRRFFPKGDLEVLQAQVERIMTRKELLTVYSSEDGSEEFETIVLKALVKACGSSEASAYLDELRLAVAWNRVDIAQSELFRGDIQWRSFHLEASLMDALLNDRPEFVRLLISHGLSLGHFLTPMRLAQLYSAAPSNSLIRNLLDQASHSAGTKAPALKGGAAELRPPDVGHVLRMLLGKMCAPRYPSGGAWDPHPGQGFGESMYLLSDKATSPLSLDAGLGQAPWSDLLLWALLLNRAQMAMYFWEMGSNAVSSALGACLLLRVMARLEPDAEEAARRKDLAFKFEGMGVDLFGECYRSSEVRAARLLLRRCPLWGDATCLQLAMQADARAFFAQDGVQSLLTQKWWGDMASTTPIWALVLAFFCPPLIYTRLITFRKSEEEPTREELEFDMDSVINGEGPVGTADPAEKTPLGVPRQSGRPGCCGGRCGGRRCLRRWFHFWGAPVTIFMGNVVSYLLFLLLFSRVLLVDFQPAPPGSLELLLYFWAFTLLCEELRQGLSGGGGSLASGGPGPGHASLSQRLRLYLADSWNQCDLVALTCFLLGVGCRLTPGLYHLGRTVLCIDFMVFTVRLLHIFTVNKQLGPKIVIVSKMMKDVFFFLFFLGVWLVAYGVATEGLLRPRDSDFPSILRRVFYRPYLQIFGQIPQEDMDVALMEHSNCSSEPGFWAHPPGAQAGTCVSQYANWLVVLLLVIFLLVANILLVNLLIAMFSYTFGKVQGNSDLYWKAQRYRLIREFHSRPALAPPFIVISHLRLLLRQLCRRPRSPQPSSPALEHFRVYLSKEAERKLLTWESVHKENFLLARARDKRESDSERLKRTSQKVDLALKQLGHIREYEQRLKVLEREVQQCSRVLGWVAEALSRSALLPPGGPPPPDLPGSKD

SMILES: COc1ccc(Cl)cc1C(=O)NCCc1ccc(S(=O)(=O)NC(=O)NC2CCCCC2)cc1 [glibenclamide]
- clinical disability (mean clinical disability score) (WT EAE mice [1]): ameliorated disability
- clinical disability (mean clinical disability score) (Trpm4−/− EAE mice): no additional clinical improvement
- number of axons in the corticospinal tract (WT EAE mice [2]; P<0.01): preservation of axons
- number of axons in the dorsal column (WT EAE mice [2]; P<0.05): preservation of axons
- neuronal cell body loss in the gray matter of the spinal cord (WT EAE mice [2]; did not reach statistical significance): slightly diminished
- TRPM4 inhibition (TRPM4): effectively inhibit TRPM4
